What all share (design): reference not given here
In test [1] the target is T1, Vitamin D-binding protein (Rattus norvegicus) (UniProt P04276).
T1 sequence (whole entry): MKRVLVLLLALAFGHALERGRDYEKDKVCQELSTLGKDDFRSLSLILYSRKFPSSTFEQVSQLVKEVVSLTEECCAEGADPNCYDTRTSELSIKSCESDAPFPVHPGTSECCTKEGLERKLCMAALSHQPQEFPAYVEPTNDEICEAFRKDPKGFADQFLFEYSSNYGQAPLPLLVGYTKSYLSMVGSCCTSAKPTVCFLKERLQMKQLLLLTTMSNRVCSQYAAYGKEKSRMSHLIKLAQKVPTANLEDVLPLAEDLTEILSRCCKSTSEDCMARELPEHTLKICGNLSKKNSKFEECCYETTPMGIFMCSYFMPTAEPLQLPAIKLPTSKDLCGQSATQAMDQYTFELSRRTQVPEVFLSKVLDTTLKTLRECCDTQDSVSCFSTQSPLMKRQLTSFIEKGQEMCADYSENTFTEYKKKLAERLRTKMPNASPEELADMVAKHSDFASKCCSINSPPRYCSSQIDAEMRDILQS
Briefly: Compound was tested for binding affinity against rat serum DBP (vitamin D binding protein). The class given is cell-free.

Test [2] addresses T2, Vitamin D3 receptor (Bos taurus) (UniProt Q28037).
T2 sequence (whole entry): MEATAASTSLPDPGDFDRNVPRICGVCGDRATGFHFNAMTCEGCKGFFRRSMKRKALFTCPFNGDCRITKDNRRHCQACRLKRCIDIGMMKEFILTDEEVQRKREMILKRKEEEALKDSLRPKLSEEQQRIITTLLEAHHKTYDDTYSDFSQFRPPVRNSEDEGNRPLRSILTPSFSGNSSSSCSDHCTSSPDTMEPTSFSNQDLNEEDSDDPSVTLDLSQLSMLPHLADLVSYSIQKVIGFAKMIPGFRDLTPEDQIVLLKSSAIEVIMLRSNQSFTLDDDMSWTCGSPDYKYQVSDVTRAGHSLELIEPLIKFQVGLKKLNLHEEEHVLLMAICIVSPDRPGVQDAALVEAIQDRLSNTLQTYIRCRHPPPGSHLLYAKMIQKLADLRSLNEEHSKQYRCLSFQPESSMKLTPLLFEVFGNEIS
Briefly: Binding affinity for bovine thymus vitamin D receptor (VDR).

For a further test, the species on record is Rattus norvegicus. Briefly: Compound was evaluated for calcium mobilizing activity in rat serum. The format is functional.
The test system of a further test is HL-60. Briefly: Compound was evaluated for HL-60 cell differentiation which was assessed in terms of expression of antigen CD11b. The format is functional, Homo sapiens.

Turning to `C=C1/C(=C\C=C2/CCC[C@]3(C)[C@@H]([C@H](C)CCCC(C)(C)O)CC[C@@H]23)C[C@@H](O)[C@H](C)[C@@H]1O`, the Activity in test [1] turned out to be 44; in test [2], 400; in the test listed under Rattus norvegicus it was 658; in the test on HL-60, 444.
The like results for `C=C1/C(=C\C=C2/CCC[C@]3(C)[C@@H]([C@H](C)CCCC(C)(C)O)CC[C@@H]23)C[C@@H](O)C[C@@H]1O` [CALCITRIOL] were, in that order, 100, 100, 100 and 100.
For the molecule `C=C1/C(=C\C=C2/CCC[C@]3(C)[C@@H]([C@H](C)CCCC(C)(C)O)CC[C@@H]23)C[C@@H](O)[C@H](CCCO)[C@@H]1O`, the Activity in test [1] stood at 362; in test [2], 300; in the test filed under Rattus norvegicus, 50866; in the test with HL-60 it was 240.
The like results for `C=C1/C(=C\C=C2/CCC[C@]3(C)[C@@H]([C@H](C)CCCC(C)(C)O)CC[C@@H]23)C[C@@H](O)[C@H](CC)[C@@H]1O` were, in that order, 48, 40, 68 and 106.
For the molecule `C=C1/C(=C\C=C2/CCC[C@]3(C)[C@@H]([C@H](C)CCCC(C)(C)O)CC[C@@H]23)C[C@@H](O)[C@H](CO)[C@@H]1O`, the Activity in test [1] is 95; in test [2], 20; in the test listed under Rattus norvegicus, 124; in the test with HL-60, 10.
For `C=C1/C(=C\C=C2/CCC[C@]3(C)[C@@H]([C@H](C)CCCC(C)(C)O)CC[C@@H]23)C[C@@H](O)[C@H](CCO)[C@@H]1O` the same measures were 74, 70, 372 and 86.
Regarding `C=C1/C(=C\C=C2/CCC[C@]3(C)[C@@H]([C@H](C)CCCC(C)(C)O)CC[C@@H]23)C[C@@H](O)[C@H](CCC)[C@@H]1O`, the Activity in test [1] stood at 21; in test [2] it was 20; in the test filed under Rattus norvegicus, 636; with HL-60, 44.

For the origin of these results see ChEMBL document CHEMBL1132887, “Syntheses and biological evaluation of novel 2alpha-substituted 1alpha,25-dihydroxyvitamin D3 analogues” (2000).
